The values that follow come from patent EP1641803B1, “THIENOPYRIMIDINE DERIVATIVES AS POTASSIUM CHANNEL INHIBITORS” (Xention Limited, priority 2003, dated 2004).

Assay [1] addresses hKv1.5 (Homo sapiens, UniProt P22460). The experiment in a line: Kv1.5 Autopatch Electrophysiology (whole cell patch-clamp). The settings on record: compound at 1µM, room temperature (22-24°C), held at -80mV, step to 0mV for 1000ms, total charge measured. Format: cell-based. As to the method: The external bathing solution contained (in mM): 150 NaCl, 10 KCl, […], 3 MgCl2, 1 CaCl2, 10 HEPES, pH 7.4. Patch pipettes were filled with an electrode solution of composition (in mM): 160 KCl, 0.5 MgCl2, 10 HEPES, 1 EGTA, pH 7.4 with KOH.
Compounds were dissolved in DMSO (100 %) and made up in the external bather at a concentration of 1µM. All experiments were conducted at room temperature (22-24°C).
A cell suspension (10 ml), with a density of 100,000 cells/ml, was aliquoted into a 15ml centrifuge tube and transferred to an incubator (37°C, 5% CO2) for approximately one hour before use. Following 60 min incubation, a tube was taken and centrifuged at 1000 rpm for 4 mins at room temperature. 9.5 ml supernatant was thence discarded, leaving a cell pellet at the bottom of the tube. The pellet was then resuspended using 100 µl of cold (4 °C), filtered (0.22 µm), 0.2 % BSA/bather solution (0.02g BSA/10ml bather). The bottom of the tube was manually agitated gently until the solution became cloudy with cells. The 100 µl cell resuspension solution was then stored on the bench at 4 °C (using a Peltier-based temperature control device) until used.
A length of capillary glass (1B150F-4, WPI) was dipped into the cell suspension solution, such that - 3 cm column of fluid was taken up by capillary action. A Ag/AgCl wire was dropped into the non-dipped end of the capillary also. The outside of the solution-filled end of the capillary was then dried and the capillary was loaded into the AutoPatch™. Borosilicate glass patch pipettes (from 1.5mm OD, thin-walled filamented, GC150-TF capillary glass, Harvard) were pulled using a DMZ pipette puller (Zeitz Instruments), and were back-filled using the internal pipette solution, being careful that no bubbles remain at the tip or in the body of the pipette. Patch pipettes typically had resistances of 2.3-3.5 MΩ. Once filled, the pipette tip and a proportion of the shaft (- 15 mm) were dipped into Sigmacote (Sigma). The recording pipette was then loaded into the AutoPatch™.
Automated patch-clamping was initiated by the operator, but thereafter AutoPatch.exe continued the experiment providing that pre-set conditions and criteria were satisfied.
Whole cell patch-clamp recordings were made using the AutoPatch™ rig, which incorporated an EPC9 amplifier (HEKA, Germany) under control of Pulse software (v8.54, HEKA, Germany), a motion controller with 2 translators (Newport, UK), valve controller (VF1) and a c-level suction device all at room temperature (22-24°C). This equipment was completely under the control of AutoPatch.exe and operator intervention was only made when there was a requirement to refill the drug reservoirs or to prevent the loss of a cell due to a technical error. Cells with an Rseries greater than 18 MΩ were discounted from the experiment.
Qualification stages prior to perfusion and drug application ensured that the observed current met the criteria for the experiment. Only those cells with an IK > 500 pA were used for experiments. Cells were continuously perfused with external solution at a flow rate of 1.8-2 ml/minute. […] Online analysis of the hKv1.5 current during the application of compounds was performed by the AutoPatch™ software. Voltage-step protocols and analysis of data was performed as described for conventional electrophysiology.
Electrophysiology voltage-step protocols and analysis of data was performed as follows. Data was sampled at 5kHz, and filtered with a -3 dB bandwidth of 2.5kHz. Cells were held at a voltage of -80mV. Currents were evoked to a voltage step for 1000ms in duration at 0mV every 5s. Currents were analysed using Pulsefit software (v8.54, HEKA, Germany), with the total charge measured during the whole of the voltage step. All other plots were produced using Igor Pro (WaveMetrics).
(In general: Patch clamp records ionic current or voltage across a cell membrane.)

The target of assay [2] is T1, human Kv1.5 (Homo sapiens, UniProt P22460).
T1 construct: expressed in transfected cells
Put plainly: Kv1.5 Rb+ Efflux Assay. The settings on record: inhibition of 86Rb+ efflux through Kv1.5; cells stably transfected with human Kv1.5; 10 point concentration response curves n=2; normalised to 2.5mM 4 amino-pyridine block. Format: cell-based. As to the method:
The pore of a potassium channel is permeable to other monovalent cations such as Rb^+ and Tl^+. Analysis of cellular efflux of potassium channel permeable ions enables potassium channel activity to be monitored directly. Cells stably transfected with cDNA for human Kv1.5 (in pEF6::VA-His-TOPO) were grown in Dulbecco's Modified Eagle media (DMEM) alpha supplemented with 10% Fetal Calf Serum (FCS), 20 µl/ml penicillin (5000U/ml) streptomycin (5000µg/ml), 10µl/ml [100x] glutamine, and blasticidin (7.5µg/ml). Cells were dispensed into 96 well cellstar TC plates and allowed to grow until a confluent monolayer was visible. On the morning of the assay run, cold media was aspirated using the TECAN plate washer, and a 50µl media spike containing 2µCi/ml (37kBq/ml) ^86Rb^+ added to each well containing cells using the Shallow-Well Matrix Platemate. Plates were placed in a incubator at 37°C for a minimum of 3 hours. Unloaded ^86Rb^+ in the "hot" media was aspirated and each well washed 4x250µl with Earls Balanced Salt Solution (EBSS) which contained 5mM KCl, 140mM NaCl, 2mM CaCl2, 1mM MgSO4, 10mM HEPES, and 5mM glucose, pH 7.4, 290-300 mOsm. These cells were then pre-incubated with 50µl of EBSS +/- test compounds for 10 minutes at room temperature. After the 10 minute incubation, 50µl of modified EBSS which contained 145mM KCl, 2mM CaCl2, 1mM MgSO4, 10mM HEPES, 5mM glucose, pH 7.4, 290-300 mOsm, was added, and the cells were incubated for a further 10 minutes at room temperature. The high KCl EBSS was used to depolarise cells to a membrane potential that would activate Kv1.5 channels. After the final incubation 80µl/100µl of the reaction from each well was transferred to equivalent wells in a Packard "Optiplate" white 96 well plate and counted in a Packard TopCount liquid scintillation counter by Cerenkov emission. Percentage inhibition ^86Rb^+ efflux through Kv1.5 was calculated by normalisation to 2.5mM 4 amino-pyridine control block of Kv1.5. Alternatively cells were loaded with ^85Rb^+ and quantified by atomic absorption spectroscopy. IC50 determinations were derived from 10 point concentration response curves n=2 using the method described above. Data was fitted as variable slope sigmoidal fit using Graphpad Prism (V3.02) software.

Some results are limits rather than exact numbers.

T1 sequence (P22460 whole entry): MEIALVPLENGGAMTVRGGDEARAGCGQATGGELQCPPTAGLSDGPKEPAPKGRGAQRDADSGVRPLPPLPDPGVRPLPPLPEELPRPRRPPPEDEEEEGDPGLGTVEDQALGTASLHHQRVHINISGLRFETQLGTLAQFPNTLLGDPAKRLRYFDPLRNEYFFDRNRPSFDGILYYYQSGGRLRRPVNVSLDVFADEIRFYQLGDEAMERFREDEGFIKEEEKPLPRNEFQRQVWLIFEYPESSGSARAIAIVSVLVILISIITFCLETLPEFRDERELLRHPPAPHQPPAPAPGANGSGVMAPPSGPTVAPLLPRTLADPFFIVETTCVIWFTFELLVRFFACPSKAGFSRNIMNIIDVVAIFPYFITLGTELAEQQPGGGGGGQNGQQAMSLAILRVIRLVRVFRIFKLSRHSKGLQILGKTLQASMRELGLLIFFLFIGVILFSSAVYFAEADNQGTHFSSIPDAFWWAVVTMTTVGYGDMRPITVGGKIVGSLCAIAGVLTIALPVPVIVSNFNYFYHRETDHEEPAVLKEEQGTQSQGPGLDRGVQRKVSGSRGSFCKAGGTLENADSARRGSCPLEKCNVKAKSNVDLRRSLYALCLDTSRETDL
Chain of hKv1.5 (P22460 whole entry): as above

On to `Clc1nc(NCc2ccco2)c2c(-c3ccccc3)csc2n1` [Example 182, (2-Chloro-5-phenyl-thieno[2,3-d]pyrimidin-4-yl)-furan-2-ylmethyl-amine], for which 1 µM produced 75.8% inhibition in assay [1]. Besides, it took 1.04 µM to reach half-maximal inhibition in assay [2] (IC50).

With `COc1cc(CNc2ncnc3scc(-c4cccs4)c23)cc(OC)c1OC` [Example 94, (5-Thiophen-2-yl-thieno[2,3-d]pyrimidin-4-yl)-(3,4,5-trimethoxy-benzyl)-amine], in assay [1], at 1 µM the inhibition was 19.4%. In assay [2], the half-inhibitory concentration (IC50) (commonly the midpoint of a concentration-inhibition curve) was > 30 µM.

Regarding `c1ccc(-c2nc(CNc3ncnc4scc(-c5ccccc5)c34)cs2)cc1` [Example 162, (2-Phenyl-thiazol-4-ylmethyl)-(5-phenyl-thieno[2,3-d]pyrimidin-4-yl)-amine], the inhibition (usually the drop in the measured response relative to a control, in per cent) at 1 µM in assay [1] is 74.5%. The molecule also registered an IC50 in assay [2] of 19.7 µM.

As for `c1csc(CNc2ncnc3scc(-c4cccs4)c23)c1` [Example 115, Thiophen-2-ylmethyl-(5-thiophen-2-yl-thieno[2,3-d]pyrimidin-4-yl)-amine], the % Inhibition (in general, the change of the read-out against control, counted positive when it falls) at 1µM in assay [1] amounted to 45.9%. The same molecule had an IC50 in assay [2] of 7.07 µM.

`c1ccc(-c2csc3ncnc(NCCc4ccccn4)c23)cc1` [Example 111, (5-Phenyl-thieno[2,3-d]pyrimidin-4-yl)-(2-pyridin-2-yl-ethyl)-amine]: in assay [1], testing at 1 µM gave an inhibition of 40% and the “% Inhibition at 1µM” value stood at 22.2%. The IC50 in assay [2] turned out to be 4.49 µM.

Regarding `Clc1ccc(-c2csc3ncnc(NCc4ccco4)c23)cc1` [Example 135, [5-(4-Chloro-phenyl)-thieno[2,3-d]pyrimidin-4-yl]-furan-2-ylmethyl-amine], the inhibition at 1 µM in assay [1] worked out at 84.8%. Further, inhibition in assay [2] was half-maximal at 0.93 µM (IC50).

For `c1ccc(CNc2ncnc3scc(-c4ccccc4)c23)cc1` [Example 86, Benzyl-(5-phenyl-thieno[2,3-d]pyrimidin-4-yl)-amine], the inhibition at 1 µM in assay [1] came out at 46%. Also, the 50% inhibitory concentration (IC50) in assay [2] came out at 4.36 µM.

The molecule `Brc1sc2ncnc(NCc3ccccn3)c2c1-c1ccccc1` [Example 164, (6-Bromo-5-phenyl-thieno[2,3-d]pyrimidin-4-yl)-pyridin-2-ylmethyl-amine] gave an inhibition at 1 µM in assay [1] of 92.8%. Half-maximal inhibition in assay [2] (IC50) required 0.53 µM.

As for `c1ccc(-c2csc3ncnc(NCc4ccccn4)c23)cc1` [Example 105, (5-Phenyl-thieno[2,3-d]pyrimidin-4-yl)-pyridin-2-ylmethyl-amine], the inhibition at 1 µM in assay [1] is 63%. In assay [2], the 50% inhibitory concentration (IC50) was 0.28 µM.

For the molecule `COc1ccc(-c2csc3ncnc(NCc4ccco4)c23)cc1` [Example 139, Furan-2-ylmethyl-[5-(4-methoxy-phenyl)-thieno[2,3-d]pyrimidin-4-yl]-amine], testing at 1 µM in assay [1] gave an inhibition of 46.9%. This molecule also came in with an IC50 in assay [2] of 1.68 µM.

`COc1nc(NCc2ccccn2)c2c(-c3ccccc3)csc2n1` [Example 191, (2-Methoxy-5-phenyl-thieno[2,3-d]pyrimidin-4-yl)-pyridin-2-ylmethyl-amine] displayed an inhibition at 1 µM in assay [1] of 91.8%. In addition, half-maximal inhibition in assay [2] (IC50) was put at 0.47 µM.

In assay [1], `Cc1nc(NCc2ccccn2)c2c(-c3ccc(F)cc3)csc2n1` [Example 155, [5-(4-Fluorophenyl)-2-methyl-thieno[2,3-d]pyrimidin-4-yl]-pyridin-2-ylmethyl-amine] registered an inhibition at 1 µM of 92.2%. Moreover, in assay [2], the IC50 was 1.62 µM.

`Cc1ccc(-c2csc3ncnc(NCCc4ccccc4)c23)cc1` [Example 130, Phenethyl-(5-p-tolyl-thieno[2,3-d]pyrimidin-4-yl)-amine] returned an IC50 in assay [2] of 8.05 µM.

The molecule `c1ccc(-c2csc3ncnc(NCC4OCCO4)c23)cc1` [Example 116, [1,3]Dioxolan-2-ylmethyl-(5-phenyl-thieno[2,3-d]pyrimidin-4-yl)-amine] gave an IC50 in assay [2] of 6.16 µM.

`c1ccc(-c2csc3ncnc(NCCCn4ccnc4)c23)cc1` [Example 104, (3-Imidazol-1-yl-propyl)-(5-phenyl-thieno[2,3-d]pyrimidin-4-yl)-amine]: the IC50 in assay [2] was > 30 µM.

On to `CCN1CCCC1CNc1ncnc2scc(-c3ccccc3)c12` (stereo not drawn) [Example 102, (1-Ethyl-pyrrolidin-2-ylmethyl)-(5-phenyl-thieno[2,3-d]pyrimidin-4-yl)-amine], for which the IC50 in assay [2] was > 30 µM.

Consider `COCCNc1ncnc2scc(-c3ccccc3)c12` [Example 113, (2-Methoxy-ethyl)-(5-phenyl-thieno[2,3-d]pyrimidin-4-yl)-amine], for which the IC50 in assay [2] worked out at 5.27 µM.

`c1ccc(CCNc2ncnc3scc(-c4ccccc4)c23)cc1` [Example 90, Phenethyl-(5-phenyl-thieno[2,3-d]pyrimidin-4-yl)-amine]: in assay [2], the IC50 was 10.1 µM.

In assay [2], `Cc1csc2ncnc(NCCc3ccc(Cl)cc3)c12` [Example 125, [2-(4-Chloro-phenyl)-ethyl]-(5-methyl-thieno[2,3-d]pyrimidin-4-yl)-amine] gave an IC50 of 6.91 µM.

In assay [2], `Fc1ccc(-c2csc3ncnc(NCc4ccco4)c23)cc1` [Example 124, [5-(4-Fluoro-phenyl)-thieno[2,3-d]pyrimidin-4-yl]-furan-2-ylmethyl-amine] gave an IC50 of 1.16 µM.

`c1ccc(-c2csc3ncnc(NCC4CCCO4)c23)cc1` (stereo not drawn) [Example 114, (5-Phenyl-thieno[2,3-d]pyrimidin-4-yl)-(tetrahydro-furan-2-ylmethyl)-amine] had an IC50 in assay [2] of 5.18 µM.

For `c1ccc(-c2csc3ncnc(NC4CCCCC4)c23)cc1` [Example 91, Cyclohexyl-(5-phenyl-thieno[2,3-d]pyrimidin-4-yl)-amine], the IC50 in assay [2] is > 30 µM.

As to `Fc1ccc(-c2csc3ncnc(NCc4ccccn4)c23)cc1` [Example 123, [5-(4-Fluoro-phenyl)-thieno[2,3-d]pyrimidin-4-yl]-pyridin-2-ylmethyl-amine], in assay [2], the IC50 is 0.05 µM.
